Reference: PubChem BioAssay (NCI)
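How tested: cells in 96-well plates exposed to compound for 48 hours at five concentrations. At the TGI there is no net growth.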

Key:
Assay in all cases: inhibition of tumour cell growth, NCI panel, 48 h
UACC-62 melanoma = test system: UACC-62 melanoma
SK-OV-3 ovarian = test system: SK-OV-3 ovarian
786-0 renal = test system: 786-0 renal
EKVX NSCLC = test system: EKVX NSCLC
UO-31 renal = test system: UO-31 renal
HOP-62 NSCLC = test system: HOP-62 NSCLC
A498 renal = test system: A498 renal
SK-MEL-28 melanoma = test system: SK-MEL-28 melanoma
MALME-3M melanoma = test system: MALME-3M melanoma
U251 CNS = test system: U251 CNS
CAKI-1 renal = test system: CAKI-1 renal
HT29 colon = test system: HT29 colon
HCT-116 colon = test system: HCT-116 colon
NCI-H522 lung = test system: NCI-H522 lung
A549 NSCLC = test system: A549 NSCLC
SK-MEL-5 melanoma = test system: SK-MEL-5 melanoma
M14 melanoma = test system: M14 melanoma
KM12 colon = test system: KM12 colon
CCRF-CEM leukemia = test system: CCRF-CEM leukemia
OVCAR-3 ovarian = test system: OVCAR-3 ovarian
SK-MEL-2 melanoma = test system: SK-MEL-2 melanoma
MOLT-4 leukemia = test system: MOLT-4 leukemia
UACC-257 melanoma = test system: UACC-257 melanoma
ACHN renal = test system: ACHN renal
K-562 leukemia = test system: K-562 leukemia
MCF7 breast = test system: MCF7 breast
MDA-MB-435 = test system: MDA-MB-435
HS 578T breast = test system: HS 578T breast
BT-549 breast = test system: BT-549 breast
COLO 205 colon = test system: COLO 205 colon
OVCAR-4 ovarian = test system: OVCAR-4 ovarian
T-47D breast = test system: T-47D breast
PC-3 prostate = test system: PC-3 prostate
SF-295 CNS = test system: SF-295 CNS
SW-620 colon = test system: SW-620 colon
HCC-2998 colon = test system: HCC-2998 colon
HCT-15 colon = test system: HCT-15 colon
RPMI-8226 leukemia = test system: RPMI-8226 leukemia
SNB-19 CNS = test system: SNB-19 CNS
HOP-92 NSCLC = test system: HOP-92 NSCLC
NCI/ADR-RES ovarian = test system: NCI/ADR-RES ovarian
LOX IMVI melanoma = test system: LOX IMVI melanoma
NCI-H460 lung = test system: NCI-H460 lung
OVCAR-5 ovarian = test system: OVCAR-5 ovarian
IGROV1 ovarian = test system: IGROV1 ovarian
OVCAR-8 ovarian = test system: OVCAR-8 ovarian
SN12C renal = test system: SN12C renal
MDA-N = test system: MDA-N
SR leukemia = test system: SR leukemia
HL-60(TB) leukemia = test system: HL-60(TB) leukemia
SF-268 CNS = test system: SF-268 CNS
SF-539 CNS = test system: SF-539 CNS
NCI-H23 lung = test system: NCI-H23 lung
MDA-MB-231 breast = test system: MDA-MB-231 breast
NCI-H226 lung = test system: NCI-H226 lung
RXF 393 renal = test system: RXF 393 renal
TK-10 renal = test system: TK-10 renal
SNB-75 CNS = test system: SNB-75 CNS

`COc1ccc(C2=Nn3c(nnc3-c3ccccc3)S/C2=C\c2ccc(-c3ccc([N+](=O)[O-])cc3)o2)cc1` gave a TGI (UACC-62 melanoma) of over 100 µM, a TGI (SK-OV-3 ovarian) of over 100 µM and a TGI (786-0 renal) of over 100 µM. The TGI (EKVX NSCLC) was over 100 µM, the TGI (UO-31 renal) was over 100 µM and the TGI (HOP-62 NSCLC) was over 100 µM. For the same compound, the TGI (A498 renal) was over 100 µM, the TGI (SK-MEL-28 melanoma) was over 100 µM and the TGI (MALME-3M melanoma) was over 100 µM. It also gave a TGI (U251 CNS) of over 100 µM, a TGI (CAKI-1 renal) of over 100 µM and a TGI (HT29 colon) of 90.3 µM. The TGI (HCT-116 colon) was over 100 µM, the TGI (NCI-H522 lung) was 81.8 µM and the TGI (A549 NSCLC) was over 100 µM. For the same compound, the TGI (SK-MEL-5 melanoma) was over 100 µM, the TGI (M14 melanoma) was 86.1 µM and the TGI (KM12 colon) was over 100 µM. It also gave a TGI (CCRF-CEM leukemia) of 32.7 µM, a TGI (OVCAR-3 ovarian) of over 100 µM and a TGI (SK-MEL-2 melanoma) of 67.6 µM. The TGI (MOLT-4 leukemia) was 76.6 µM, the TGI (UACC-257 melanoma) was over 100 µM and the TGI (ACHN renal) was over 100 µM. The TGI (K-562 leukemia) was 88.8 µM, the TGI (MCF7 breast) was over 100 µM and the TGI (MDA-MB-435) was 51.3 µM. For the same compound, the TGI (HS 578T breast) was over 100 µM, the TGI (BT-549 breast) was over 100 µM and the TGI (COLO 205 colon) was 70 µM. For the same compound, the TGI (OVCAR-4 ovarian) was over 100 µM, the TGI (T-47D breast) was over 100 µM and the TGI (PC-3 prostate) was over 100 µM. It also gave a TGI (SF-295 CNS) of over 100 µM, a TGI (SW-620 colon) of over 100 µM and a TGI (HCC-2998 colon) of over 100 µM. It also gave a TGI (HCT-15 colon) of over 100 µM, a TGI (RPMI-8226 leukemia) of 80.2 µM and a TGI (SNB-19 CNS) of over 100 µM. For the same compound, the TGI (HOP-92 NSCLC) was over 100 µM, the TGI (NCI/ADR-RES ovarian) was over 100 µM and the TGI (LOX IMVI melanoma) was over 100 µM. For the same compound, the TGI (NCI-H460 lung) was over 100 µM, the TGI (OVCAR-5 ovarian) was over 100 µM and the TGI (IGROV1 ovarian) was over 100 µM. The TGI (OVCAR-8 ovarian) was over 100 µM, the TGI (SN12C renal) was over 100 µM and the TGI (MDA-N) was over 100 µM. For the same compound, the TGI (SR leukemia) was over 100 µM, the TGI (HL-60(TB) leukemia) was 59 µM and the TGI (SF-268 CNS) was over 100 µM.
With `CC(=O)c1ccc(NC(=O)/C(CC(=O)/C=C/c2ccccc2)=N/NC(N)=S)cc1` the TGI (UACC-62 melanoma) was over 100 µM, the TGI (SK-OV-3 ovarian) was over 100 µM and the TGI (786-0 renal) was over 100 µM. For the same compound, the TGI (SF-539 CNS) was over 100 µM, the TGI (EKVX NSCLC) was over 100 µM and the TGI (UO-31 renal) was over 100 µM. For the same compound, the TGI (HOP-62 NSCLC) was over 100 µM, the TGI (NCI-H23 lung) was over 100 µM and the TGI (A498 renal) was over 100 µM. The TGI (SK-MEL-28 melanoma) was over 100 µM, the TGI (MALME-3M melanoma) was over 100 µM and the TGI (U251 CNS) was over 100 µM. For the same compound, the TGI (MDA-MB-231 breast) was over 100 µM, the TGI (NCI-H226 lung) was over 100 µM and the TGI (CAKI-1 renal) was over 100 µM. It also gave a TGI (HT29 colon) of over 100 µM, a TGI (HCT-116 colon) of over 100 µM and a TGI (NCI-H522 lung) of over 100 µM. For the same compound, the TGI (A549 NSCLC) was over 100 µM, the TGI (SK-MEL-5 melanoma) was over 100 µM and the TGI (M14 melanoma) was over 100 µM. For the same compound, the TGI (KM12 colon) was over 100 µM, the TGI (OVCAR-3 ovarian) was over 100 µM and the TGI (SK-MEL-2 melanoma) was over 100 µM. For the same compound, the TGI (MOLT-4 leukemia) was over 100 µM, the TGI (UACC-257 melanoma) was over 100 µM and the TGI (ACHN renal) was over 100 µM. It also gave a TGI (K-562 leukemia) of over 100 µM, a TGI (MCF7 breast) of over 100 µM and a TGI (MDA-MB-435) of over 100 µM. It also gave a TGI (HS 578T breast) of over 100 µM, a TGI (BT-549 breast) of over 100 µM and a TGI (RXF 393 renal) of over 100 µM. The TGI (TK-10 renal) was over 100 µM, the TGI (OVCAR-4 ovarian) was over 100 µM and the TGI (T-47D breast) was over 100 µM. For the same compound, the TGI (PC-3 prostate) was over 100 µM, the TGI (SF-295 CNS) was over 100 µM and the TGI (SW-620 colon) was over 100 µM. For the same compound, the TGI (HCC-2998 colon) was over 100 µM, the TGI (HCT-15 colon) was over 100 µM and the TGI (RPMI-8226 leukemia) was over 100 µM. For the same compound, the TGI (HOP-92 NSCLC) was over 100 µM, the TGI (NCI/ADR-RES ovarian) was over 100 µM and the TGI (LOX IMVI melanoma) was over 100 µM. It also gave a TGI (NCI-H460 lung) of over 100 µM, a TGI (OVCAR-5 ovarian) of over 100 µM and a TGI (IGROV1 ovarian) of over 100 µM. It also gave a TGI (OVCAR-8 ovarian) of over 100 µM, a TGI (SN12C renal) of over 100 µM and a TGI (MDA-N) of over 100 µM. The TGI (SNB-75 CNS) was over 100 µM, the TGI (SR leukemia) was over 100 µM and the TGI (HL-60(TB) leukemia) was over 100 µM. It also gave a TGI (SF-268 CNS) of over 100 µM.
Compound `COc1cc2c3c(c1O)N=NC=3CCN=2` has a TGI (UACC-62 melanoma) of 30.7 µM, a TGI (786-0 renal) of 32.7 µM and a TGI (SF-539 CNS) of 35.5 µM. It also gave a TGI (EKVX NSCLC) of 30.7 µM, a TGI (UO-31 renal) of 62.5 µM and a TGI (HOP-62 NSCLC) of 97.3 µM. For the same compound, the TGI (NCI-H23 lung) was 38.2 µM, the TGI (A498 renal) was 75.4 µM and the TGI (SK-MEL-28 melanoma) was 32.1 µM. For the same compound, the TGI (MALME-3M melanoma) was 30.2 µM, the TGI (U251 CNS) was 30.6 µM and the TGI (MDA-MB-231 breast) was 29.8 µM. For the same compound, the TGI (HT29 colon) was 28.8 µM, the TGI (HCT-116 colon) was 28.1 µM and the TGI (NCI-H522 lung) was 19.4 µM. For the same compound, the TGI (A549 NSCLC) was 66.4 µM, the TGI (SK-MEL-5 melanoma) was 32.5 µM and the TGI (M14 melanoma) was 28.8 µM. For the same compound, the TGI (KM12 colon) was 88.4 µM, the TGI (OVCAR-3 ovarian) was 31 µM and the TGI (SK-MEL-2 melanoma) was 30.9 µM. It also gave a TGI (MOLT-4 leukemia) of 50.4 µM, a TGI (UACC-257 melanoma) of 29.1 µM and a TGI (ACHN renal) of 33.8 µM. It also gave a TGI (K-562 leukemia) of 18.3 µM, a TGI (MCF7 breast) of 20.2 µM and a TGI (MDA-MB-435) of 24.5 µM. The TGI (HS 578T breast) was over 100 µM, the TGI (BT-549 breast) was 31.7 µM and the TGI (TK-10 renal) was 52.3 µM. For the same compound, the TGI (COLO 205 colon) was 35.2 µM, the TGI (T-47D breast) was 23.3 µM and the TGI (PC-3 prostate) was 84.8 µM. For the same compound, the TGI (SF-295 CNS) was 50.9 µM, the TGI (SW-620 colon) was 31.7 µM and the TGI (HCC-2998 colon) was over 100 µM. It also gave a TGI (HCT-15 colon) of over 100 µM, a TGI (RPMI-8226 leukemia) of 31.1 µM and a TGI (SNB-19 CNS) of over 100 µM. It also gave a TGI (NCI/ADR-RES ovarian) of over 100 µM, a TGI (LOX IMVI melanoma) of 18 µM and a TGI (NCI-H460 lung) of 80.1 µM. It also gave a TGI (OVCAR-5 ovarian) of 34.4 µM, a TGI (IGROV1 ovarian) of 34 µM and a TGI (OVCAR-8 ovarian) of 30.9 µM. For the same compound, the TGI (SN12C renal) was 29.3 µM, the TGI (MDA-N) was 25.1 µM and the TGI (SR leukemia) was 42.3 µM. The TGI (HL-60(TB) leukemia) was 14.8 µM.
